Reference: US12559474B2, “Triazine derivatives having virus replication inhibitory activity and pharmaceutical composition comprising the same” (priority 2021, dated 2026)
pEC50, pIC50: −log10 of the molar value. Where two headings read alike, the source gives them in different places.

Legend:
[1] = tested on: SARS-CoV-2; test: microbe, parasite or virus in culture; assay type: cell-based; settings: Severe acute respiratory syndrome coronavirus 2, VeroE6/TMPRSS2, 72 h, 50% SARS-CoV-2 infected cell death inhibitory concentration, VeroE6/TMPRSS2 cells, 3 days culture
[2] = target: SARS-CoV-2 3CL protease (Severe acute respiratory syndrome coronavirus 2, UniProt P0DTD1); test: biochemical; settings: 50% SARS-CoV-2 3CL protease inhibitory concentration, read-out: IC50

| Compound | pEC50 ([1]; class symbols) | pIC50 ([2]; given as class symbols) | pEC50 ([1]; CellTiter-Glo 2.0) | pIC50 ([2]; RapidFire MS) |
| --- | --- | --- | --- | --- |
| Cn1cnc(Cn2c(=O)nc(Nc3cc4cn(CC(C)(C)O)nc4cc3Cl)n(Cc3cc(F)c(F)c(Cl)c3)c2=O)n1 [II-0305] | 5.00 to 6.00 | > 7.00 |  |  |
| Cn1cnc(Cn2c(=O)nc(Nc3cc4sc(NC5CC5)nc4cc3Cl)n(Cc3cc(F)c(F)cc3F)c2=O)n1 [II-0306] |  |  | 6.39 | 8.29 |
| Cn1cnc(Cn2c(=O)nc(Nc3cc4cn(CCO)nc4cc3Cl)n(Cc3cc(F)c(F)c(Cl)c3)c2=O)n1 [II-0307] | 5.00 to 6.00 | > 7.00 |  |  |
| Cn1cc2cc(Nc3nc(=O)n(-c4cncc5ccccc45)c(=O)n3Cc3cc(F)c(F)cc3F)c(Cl)cc2n1 [II-0308] | > 6.00 | > 7.00 |  |  |
| Cn1cnc(Cn2c(=O)nc(Nc3cc4cn(CC(=O)OC(C)(C)C)nc4cc3Cl)n(Cc3cc(Cl)c(F)cc3F)c2=O)n1 [II-0309] | 5.00 to 6.00 | > 7.00 |  |  |
| Cn1cnc(Cn2c(=O)nc(Nc3cc4cn(CC(=O)OC(C)(C)C)nc4cc3Cl)n(Cc3cc(F)c(F)c(Cl)c3)c2=O)n1 [II-0311] | 5.00 to 6.00 | > 7.00 |  |  |
| Cc1cncc(-n2c(=O)nc(Nc3ccc4nn(CC(F)(F)F)cc4c3)n(Cc3cc(C#N)ccc3F)c2=O)c1 [II-0312] | > 6.00 | > 7.00 |  |  |
| CNc1nc2ccc(Nc3nc(=O)n(-c4cncc(C)c4)c(=O)n3Cc3ccc(F)c(C#N)c3)cc2s1 [II-0313] | > 6.00 | > 7.00 |  |  |
| CC(=O)Nc1nc2ccc(Nc3nc(=O)n(-c4cncc(C)c4)c(=O)n3Cc3ccc(F)c(C#N)c3)cc2s1 [II-0316] | 5.00 to 6.00 | > 7.00 |  |  |
| CNc1nc2cc(Cl)c(Nc3nc(=O)n(-c4cncc(C)c4)c(=O)n3Cc3cc(F)c(F)c(F)c3)cc2s1 [II-0318] | > 6.00 | > 7.00 |  |  |
| Cc1cncc(-n2c(=O)nc(Nc3ccc4nn(C(F)F)cc4c3)n(Cc3ccc(F)c(C#N)c3)c2=O)c1 [II-0320] | > 6.00 | > 7.00 |  |  |
| N#Cc1cnc2[nH]c(=O)c(Cn3c(=O)nc(Nc4ccc5c(c4)CCO5)n(Cc4cc(F)c(F)c(F)c4)c3=O)cc2c1 [II-0322] | 5.00 to 6.00 | > 7.00 |  |  |
| CNc1nc2ccc(Nc3nc(=O)n(-c4cncc(C)c4)c(=O)n3Cc3cc(F)c(F)c(F)c3)cc2s1 [II-0323] | > 6.00 | > 7.00 |  |  |
| Cc1nc2cc(Cl)c(Nc3nc(=O)n(Cc4ncn(C)n4)c(=O)n3Cc3cc(F)c(F)cc3F)cc2o1 [II-0326] | 5.00 to 6.00 | > 7.00 |  |  |
| CCNC(=O)Cn1c(=O)nc(Nc2cc3cn(C)nc3cc2Cl)n(Cc2cc(F)c(F)c(F)c2)c1=O [II-0329] |  |  | 4.94 | 6.85 |
| Cn1cc2cc(Nc3nc(=O)n(CC(=O)NC4CCCCC4)c(=O)n3Cc3cc(F)c(F)c(F)c3)c(Cl)cc2n1 [II-0330] |  |  | 4.37 | 5.44 |
| Cc1cncc(-n2c(=O)nc(Nc3cc4cn(C)nc4cc3Cl)n(Cc3cc(Cl)ccc3C)c2=O)c1 [II-0332] |  |  | 7.27 | 8.70 |
| Cc1cncc(-n2c(=O)nc(Nc3cc4cn(C)nc4cc3Cl)n(Cc3cc(C#N)ccc3C(F)F)c2=O)c1 [II-0333] | > 6.00 | > 7.00 |  |  |
| Cc1cncc(-n2c(=O)nc(Nc3cc4cn(C)nc4cc3Cl)n(Cc3cc(C#N)ccc3CF)c2=O)c1 [II-0334] |  |  | 6.21 | 8.55 |
| CCn1cc2cc(Nc3nc(=O)n(-c4cncc(C)c4)c(=O)n3Cc3cc(C#N)c(F)cc3C)ccc2n1 [II-0335] |  |  | 6.62 | 8.49 |
| CCNc1nc2cc(Cl)c(Nc3nc(=O)n(-c4cncc(C)c4)c(=O)n3Cc3ccc(F)c(C#N)c3)cc2s1 [II-0336] | > 6.00 | > 7.00 |  |  |
| Cc1cncc(-n2c(=O)nc(Nc3cc4cn(CCO)nc4cc3Cl)n(Cc3cc(F)c(F)cc3F)c2=O)c1 [II-0337] | > 6.00 | > 7.00 |  |  |
| CCNc1nc2cc(Cl)c(Nc3nc(=O)n(Cc4ncn(C)n4)c(=O)n3Cc3cc(F)c(F)cc3F)cc2s1 [II-0339] | > 6.00 | > 7.00 |  |  |
| Cc1nc2cc(Cn3c(=O)nc(Nc4ccc5c(c4)CCO5)n(Cc4cc(F)c(F)c(F)c4)c3=O)c(=O)[nH]c2s1 [II-0341] | 5.00 to 6.00 | > 7.00 |  |  |
| COc1ccc(Nc2nc(=O)n(Cc3cc4sccc4[nH]c3=O)c(=O)n2Cc2cc(F)c(F)c(F)c2)cc1 [II-0342] | 5.00 to 6.00 | > 7.00 |  |  |

| Compound | pEC50 ([1]; class symbols) | pIC50 ([2]; given as class symbols) | pEC50 ([1]; CellTiter-Glo 2.0) | pIC50 ([2]; RapidFire MS) |
| --- | --- | --- | --- | --- |
| COc1ccc(Nc2nc(=O)n(Cc3cc4c([nH]c3=O)CCC4)c(=O)n2Cc2cc(F)c(F)c(F)c2)cc1 [II-0343] |  |  | 5.38 | 6.51 |
| Cc1nc(Cn2cc3cc(Nc4nc(=O)n(Cc5ccc[nH]c5=O)c(=O)n4Cc4cc(F)c(F)c(F)c4)c(Cl)cc3n2)no1 [II-0344] | 5.00 to 6.00 | > 7.00 |  |  |
| Cc1cncc(-n2c(=O)nc(Nc3cc4cn(CC5CC5)nc4cc3Cl)n(Cc3ccc(F)c(C#N)c3)c2=O)c1 [II-0345] | > 6.00 | > 7.00 |  |  |
| CNc1nc2cc(Cl)c(Nc3nc(=O)n(-c4cncc(C)c4)c(=O)n3Cc3cc(C#N)c(F)cc3C)cc2o1 [II-0346] | > 6.00 | > 7.00 |  |  |
| Cc1ccc(C#N)cc1Cn1c(Nc2ccc3nn(C)cc3c2)nc(=O)n(-c2cncc(Cl)c2)c1=O [II-0347] |  |  | 6.72 | 8.15 |
| Cc1cc(Cn2cc3cc(Nc4nc(=O)n(Cc5ccc[nH]c5=O)c(=O)n4Cc4cc(F)c(F)c(F)c4)c(Cl)cc3n2)no1 [II-0348] | 5.00 to 6.00 | > 7.00 |  |  |
| O=c1nc(Nc2cc3c(cc2Cl)nc2n3CCN2)n(Cc2cc(Cl)c(F)cc2F)c(=O)n1-c1cncc(Cl)c1 [II-0349] | 5.00 to 6.00 | > 7.00 |  |  |
| Cc1cncc(-n2c(=O)nc(Nc3cc4c(cc3Cl)nc(C)n4C)n(Cc3ccc(F)c(C#N)c3)c2=O)c1 [II-0350] | 5.00 to 6.00 | > 7.00 |  |  |
| Cc1cncc(-n2c(=O)nc(Nc3cc4cn(CCN5CCOCC5)nc4cc3Cl)n(Cc3cc(F)c(F)c(F)c3)c2=O)c1 [II-0351] | > 6.00 | > 7.00 |  |  |
| Cn1cnc(Cn2c(=O)nc(Nc3cc4cn(CC5CC5)nc4cc3Cl)n(Cc3cc(F)c(F)cc3F)c2=O)n1 [II-0352] | > 6.00 | > 7.00 |  |  |
| Cc1cncc(-n2c(=O)nc(Nc3cc4c(cc3F)nc(C)n4C)n(Cc3ccc(F)c(C#N)c3)c2=O)c1 [II-0353] | 5.00 to 6.00 | > 7.00 |  |  |
| Cc1cncc(-n2c(=O)nc(Nc3ccc4nc(C)n(C)c4c3)n(Cc3ccc(F)c(C#N)c3)c2=O)c1 [II-0354] | 5.00 to 6.00 | > 7.00 |  |  |
| Cc1cncc(-n2c(=O)nc(Nc3cc4cn(CC(F)F)nc4cc3F)n(Cc3cc(F)c(F)cc3F)c2=O)c1 [II-0355] | > 6.00 | > 7.00 |  |  |
| Cc1cncc(-n2c(=O)nc(Nc3cc4c(cc3Cl)nc(C)n4C)n(Cc3cc(F)c(F)c(F)c3)c2=O)c1 [II-0356] | 5.00 to 6.00 | > 7.00 |  |  |
| Cn1cnc(Cn2c(=O)nc(Nc3cc4cn(CC(F)F)nc4cc3F)n(Cc3cc(F)c(F)cc3F)c2=O)n1 [II-0359] | 5.00 to 6.00 | > 7.00 |  |  |
| Cc1cncc(-n2c(=O)nc(Nc3cc4c(cc3F)nc(C)n4C)n(Cc3cc(F)c(F)c(F)c3)c2=O)c1 [II-0360] | 5.00 to 6.00 | > 7.00 |  |  |
| Cn1cnc(Cn2c(=O)nc(Nc3cc4cn(C)nc4cc3Cl)n(Cc3cc(Cl)ccc3F)c2=O)n1 [II-0361] | > 6.00 | > 7.00 |  |  |
| Cc1cncc(-n2c(=O)nc(Nc3cc4cn(C)nc4cc3Cl)n(Cc3cc(Cl)ccc3F)c2=O)c1 [II-0362] | > 6.00 | > 7.00 |  |  |
| Cn1cnc(Cn2c(=O)nc(Nc3cc4cn(C)nc4cc3Cl)n(Cc3cc(Cl)c(F)cc3Cl)c2=O)n1 [II-0363] | > 6.00 | > 7.00 |  |  |
| Cc1cncc(-n2c(=O)nc(Nc3cc4cn(C)nc4cc3F)n(Cc3cc(C#N)ccc3Cl)c2=O)c1 [II-0364] | > 6.00 | > 7.00 |  |  |
| Cc1cc(F)c(C#N)cc1Cn1c(Nc2cc3cn(C)nc3cc2F)nc(=O)n(-c2cncc(Cl)c2)c1=O [II-0365] | > 6.00 | > 7.00 |  |  |
| Cc1cncc(-n2c(=O)nc(Nc3cc4cn(C5CC5)nc4cc3Cl)n(Cc3ccc(F)c(C#N)c3)c2=O)c1 [II-0366] | > 6.00 | > 7.00 |  |  |
| Cn1cc2cc(Nc3nc(=O)n(-c4cncc(Cl)c4)c(=O)n3Cc3cc(F)c(F)c(C#N)c3)c(F)cc2n1 [II-0367] | > 6.00 | > 7.00 |  |  |
| Cc1cncc(-n2c(=O)nc(Nc3cc4c(C#N)n(C)nc4cc3Cl)n(Cc3ccc(F)c(C#N)c3)c2=O)c1 [II-0368] | 5.00 to 6.00 | > 7.00 |  |  |
| Cc1cncc(-n2c(=O)nc(N3CC4CCC3CC4)n(Cc3cc(F)c(F)c(F)c3)c2=O)c1 [II-0369] |  |  | 5.94 | 6.20 |
